Assay results reported in patent publication US11692028B2, “Map kinase pathway targets for the treatment of Marfan syndrome” (The Johns Hopkins University, priority 2017, dated 2023).

Tests used:
[1] = tested on: TGFβ signal transduction (p-SMAD2); details: measured by p-SMAD2 western blot analysis; cited from earlier work
[2] = tested on: pSmad2, pErk1/2, pp38, pEgfr; assay: Western blot analysis of the aortic root of treated 129 MFS mice; format: in vivo, mouse; details: for signaling cascade activation in aortic root (Western blot): treated 129 MFS mice at 4 months of age, FIG. 2E, 3G
Description: Losartan was dissolved in drinking water and filtered to reach a concentration of 0.6 g/L, giving an estimated daily dose of 60 mg/kg/day, as described previously (Habashi, J. P. et al. Science 312, 117-21 (2006)). Mice were started on losartan at 2 months of age and continued for 8 months. Placebo-treated animals received regular drinking water. RDEA119 was reconstituted in 10% 2-hydroxypropyl-beta-cyclodextrin (Sigma-Aldrich, Mo., USA) dissolved in PBS, and administered twice daily by oral gavage at a dose of 25 mg/kg, as described previously (Holm, T. M. et al. Science 15, 358-61 (2011)). Treatment was initiated at 2 months of age and continued for 2 months. 10% 2-hydroxypropyl-beta-cyclodextrin dissolved in PBS was administered as a control. Erlotinib was reconstituted in 1% methylcellulose (Sigma-Aldrich) dissolved in PBS, and administered daily by oral gavage at a dose of 50 mg/kg. Treatment was initiated at 2 months of age and continued for 2 months. 1% methylcellulose dissolved in PBS was administered as a control. Mice that were sacrificed for Western Blot analysis had their proximal ascending aortas immediately dissected, flash frozen in liquid nitrogen and stored at -80° C. until further processing. Protein was extracted using the reagents and protocol from a Total Protein Extraction Kit containing protease inhibitor and Protein Phosphatase Inhibitor Cocktail (Millipore, Mass., USA). Aortas were homogenized using a pellet pestle motor (Kimble-Kontes, N.J., USA) as per the extraction kit protocol. Samples were then stored once more at -80° C. until Western blot analysis was performed. […] PBS-T). Equal protein loading of samples was determined by a protein assay (Bio-Rad, Calif., USA) and confirmed by probing with an antibody against β-Actin (Sigma-Aldrich #A5316). […] Blots were then washed in PBS-T, developed using SuperSignal West Femto HRP substrate (Pierce Scientific, Ill., USA), exposed to BioMax Scientific Imaging Film (Sigma), and quantified using ImageJ analysis software (NIH, Md., USA).

[3] = tested on: 129 MFS mice (Fbn1C1039G/+ on 129S6/SvEvTac background); assay: Aortic root growth by echocardiography in drug-treated 129 MFS mice; format: in vivo, mouse; details: for aortic root growth: FIG. 2B
Description: Losartan was dissolved in drinking water and filtered to reach a concentration of 0.6 g/L, giving an estimated daily dose of 60 mg/kg/day, as described previously (Habashi, J. P. et al. Science 312, 117-21 (2006)). Mice were started on losartan at 2 months of age and continued for 8 months. Placebo-treated animals received regular drinking water. RDEA119 was reconstituted in 10% 2-hydroxypropyl-beta-cyclodextrin (Sigma-Aldrich, Mo., USA) dissolved in PBS, and administered twice daily by oral gavage at a dose of 25 mg/kg, as described previously (Holm, T. M. et al. Science 15, 358-61 (2011)). Treatment was initiated at 2 months of age and continued for 2 months. 10% 2-hydroxypropyl-beta-cyclodextrin dissolved in PBS was administered as a control. Erlotinib was reconstituted in 1% methylcellulose (Sigma-Aldrich) dissolved in PBS, and administered daily by oral gavage at a dose of 50 mg/kg. Treatment was initiated at 2 months of age and continued for 2 months. 1% methylcellulose dissolved in PBS was administered as a control.
Mouse echocardiography: Nair hair removal cream was used on all mice the day prior to echocardiography. All echocardiograms were performed on awake, unsedated mice using the VisualSonics Vevo 2100 imaging system and a 30 MHz transducer (Fujifilm VisualSonics, ON, Canada). The aorta was imaged using a parasternal, long-axis view. Three separate measurements of the maximal internal dimension at the sinus of Valsalva and proximal ascending aorta were made from distinct captured images and averaged. All imaging and measurements were performed blinded to genotype and treatment arm.

[4] = tested on: TGFβ induction in vascular tissues; details: literature; cited from earlier work
[5] = tested on: Fbn1C1039G/+ mice (MFS mice); details: cited from earlier work; for aortic disease in MFS mice: literature (Habashi 2006; Holm 2011; Habashi 2011; Doyle 2015)
[6] = tested on: 129 MFS mice (Fbn1C1039G/+ on 129S6/SvEvTac background); assay: Survival / premature lethality from aortic dissection in 129 MFS mice; format: in vivo, mouse; details: losartan, up to 8 months of treatment, FIG. 2C
Text: Mice were cared for under compliance with the Animal Care and Use Committee of the Johns Hopkins University School of Medicine. Fbn1^C1039G/+ mice on a pure C57BL/6J background were already onsite. Mice on a pure 129S6/SvEvTac background were obtained from Taconic Biosciences (Rensselaer County, N.Y., USA). The Fbn1^C1039G/+ mice on a pure C57BL/6J background were bred into a pure 129S6/SvEvTac background and backcrossed for >10 generations. Mice haploinsufficient or knockout for Mmp17 (B6.129P2-Mmp17^rm1Dg^en/J; #005824), Map2k6 (B6.129S1-Map2k6^tm1Flv/J; #008382) and Map3k4 (B6.129S6-Map3k4^tm1Flv/J; #008375) were obtained from the Jackson Laboratory (Bar Harbor, Me., USA), and bred to Fbn1C1039G/+ mice. Animals were checked daily for death and all mice found dead were immediately autopsied to assess for evidence of aortic dissection. Mice that were sacrificed were done so using a lethal dose of ketamine and acepromazine (1 ml of 10 mg/ml acepromazine in 10 mls of 100 mg/ml ketamine; MWI Vet, ID, USA). At the time of sacrifice, mice underwent immediate laparotomy and descending abdominal aortic transection. Phosphate buffered saline (PBS) was infused through the right and left ventricles to flush out the blood. […]

patients with MFS = details: literature (Lacro et al., NEJM 371, 2061); cited from earlier work
[7] = oral gavage from 2 to 4 months of age (RDEA119 25 mg/kg twice daily; erlotinib 50 mg/kg daily), 3F

Structure (SMILES): Fc1ccc(Cl)cc1-c1nc(Nc2ccncc2)c2nccnc2n1 [SD-208]
- TGFβ signal transduction [1]: inhibits TGFβ signal transduction in a dose-dependent fashion

Structure (SMILES): C#Cc1cccc(Nc2ncnc3cc(OCCOC)c(OCCOC)cc23)c1 [erlotinib]
- signaling cascade activation in aortic root (Western blot) [2]: reduced activation of Egfr, Erk1/2, and p38
- aortic root growth [3, 7]: abrogated aortic root growth
- Ang-II infusion-mediated TGFβ induction in vascular tissues [4]: can abrogate Ang-II infusion-mediated TGFβ induction in vascular tissues

Structure (SMILES): COc1cc(F)c(F)c(Nc2ccc(I)cc2F)c1NS(=O)(=O)C1(C[C@H](O)CO)CC1 [RDEA119]
- signaling cascade activation in aortic root (Western blot) [2]: selective reduction in noncanonical (Erk1/2, p38) cascades
- all aortic parameters (aortic root size, post-natal aortic root growth, premature lethality from dissection) [3]: fully rescued
- aortic root growth [3, 7]: reduced aortic root growth to a rate equal to that of WT animals
- aortic disease in MFS mice [5]: can suppress aortic disease in MFS mice

Structure (SMILES): CCCCc1nc(Cl)c(CO)n1Cc1ccc(-c2ccccc2-c2nn[nH]n2)cc1 [losartan]
- premature lethality (survival) [6]: ameliorated premature lethality
- TGFβ signaling cascades in aortic root (Western blot) ([2]; losartan-treated 129 MFS mice at 10 months of age, FIG. 2D): reduction in both canonical (Smad2) and noncanonical (Erk1/2, p38) TGFβ signaling cascades
- aortic root growth in patients with MFS (patients with MFS): some degree of rescue of aortic root growth
- all aortic parameters (aortic root size, post-natal aortic root growth, premature lethality from dissection) [3]: fully rescued
- aortic root growth ([3]; losartan 0.6 g/L in drinking water (est. 60 mg/kg/day), growth from 2 to 6 months): reduced aortic root growth to a rate equal to that of WT animals
- multiple phenotypic manifestations (aortic aneurysm, developmental emphysema, mitral valve disease, skeletal muscle myopathy) ([5]; Fbn1C1039G/+ mice, in association with blunted Smad2/3 activation, literature): can be attenuated
- aortic disease in MFS mice [5]: can suppress aortic disease in MFS mice
